From PubChem BioAssay (NCI)
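Exposure lasted 48 hours, with cells grown in 96-well plates and compounds tested at five concentrations. TGI: concentration producing complete growth inhibition.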

Legend:
Experiment in all cases: inhibition of tumour cell growth, NCI panel, 48 h
NCI-H23 lung = tested on: NCI-H23 lung
HT29 colon = tested on: HT29 colon
SF-295 CNS = tested on: SF-295 CNS
SK-MEL-2 melanoma = tested on: SK-MEL-2 melanoma
IGROV1 ovarian = tested on: IGROV1 ovarian
OVCAR-8 ovarian = tested on: OVCAR-8 ovarian
KM12 colon = tested on: KM12 colon
A498 renal = tested on: A498 renal
RXF-631 renal = tested on: RXF-631 renal
SF-539 CNS = tested on: SF-539 CNS
MALME-3M melanoma = tested on: MALME-3M melanoma
HCC-2998 colon = tested on: HCC-2998 colon
HCT-116 colon = tested on: HCT-116 colon
HCT-15 colon = tested on: HCT-15 colon
SK-MEL-5 melanoma = tested on: SK-MEL-5 melanoma
SNB-78 CNS = tested on: SNB-78 CNS
OVCAR-5 ovarian = tested on: OVCAR-5 ovarian
TK-10 renal = tested on: TK-10 renal
786-0 renal = tested on: 786-0 renal
SNB-75 CNS = tested on: SNB-75 CNS
M14 melanoma = tested on: M14 melanoma
RPMI-8226 leukemia = tested on: RPMI-8226 leukemia
U251 CNS = tested on: U251 CNS
M19-MEL melanoma = tested on: M19-MEL melanoma
A549 NSCLC = tested on: A549 NSCLC
SK-MEL-28 melanoma = tested on: SK-MEL-28 melanoma
HL-60(TB) leukemia = tested on: HL-60(TB) leukemia
OVCAR-4 ovarian = tested on: OVCAR-4 ovarian
UACC-62 melanoma = tested on: UACC-62 melanoma
UO-31 renal = tested on: UO-31 renal
ACHN renal = tested on: ACHN renal
DLD-1 colon = tested on: DLD-1 colon
CCRF-CEM leukemia = tested on: CCRF-CEM leukemia
EKVX NSCLC = tested on: EKVX NSCLC
KM20L2 colon = tested on: KM20L2 colon
NCI-H460 lung = tested on: NCI-H460 lung
UACC-257 melanoma = tested on: UACC-257 melanoma
SW-620 colon = tested on: SW-620 colon
MOLT-4 leukemia = tested on: MOLT-4 leukemia
DMS 273 small cell lung = tested on: DMS 273 small cell lung
K-562 leukemia = tested on: K-562 leukemia
LXFL 529 NSCLC = tested on: LXFL 529 NSCLC
SK-OV-3 ovarian = tested on: SK-OV-3 ovarian
CAKI-1 renal = tested on: CAKI-1 renal
RXF 393 renal = tested on: RXF 393 renal
HOP-62 NSCLC = tested on: HOP-62 NSCLC
OVCAR-3 ovarian = tested on: OVCAR-3 ovarian
NCI-H226 lung = tested on: NCI-H226 lung
XF 498 CNS = tested on: XF 498 CNS
SN12C renal = tested on: SN12C renal
LOX IMVI melanoma = tested on: LOX IMVI melanoma
COLO 205 colon = tested on: COLO 205 colon
SR leukemia = tested on: SR leukemia
HOP-92 NSCLC = tested on: HOP-92 NSCLC
SF-268 CNS = tested on: SF-268 CNS
HOP-18 NSCLC = tested on: HOP-18 NSCLC
DMS 114 small cell lung = tested on: DMS 114 small cell lung
SNB-19 CNS = tested on: SNB-19 CNS
NCI-H522 lung = tested on: NCI-H522 lung

Measured: TGI

C[C@]12CCC(=O)C(O)=C1CC[C@@H]1C2CC[C@]2(C)Nc3c(cnn3-c3ccccc3)CC12 (some centres undefined)
> 100 µM: NCI-H23 lung | HT29 colon | SF-295 CNS | SK-MEL-2 melanoma | IGROV1 ovarian | OVCAR-8 ovarian | KM12 colon | A498 renal | RXF-631 renal | SF-539 CNS | MALME-3M melanoma | HCC-2998 colon | HCT-116 colon | HCT-15 colon | SK-MEL-5 melanoma | SNB-78 CNS | OVCAR-5 ovarian | TK-10 renal | 786-0 renal | SNB-75 CNS | M14 melanoma | U251 CNS | M19-MEL melanoma | A549 NSCLC | SK-MEL-28 melanoma | OVCAR-4 ovarian | UACC-62 melanoma | UO-31 renal | ACHN renal | DLD-1 colon | CCRF-CEM leukemia | EKVX NSCLC | KM20L2 colon | NCI-H460 lung | UACC-257 melanoma | SW-620 colon | MOLT-4 leukemia | DMS 273 small cell lung | K-562 leukemia | LXFL 529 NSCLC | SK-OV-3 ovarian | CAKI-1 renal | RXF 393 renal | HOP-62 NSCLC | OVCAR-3 ovarian | NCI-H226 lung | XF 498 CNS
62.6 µM: HL-60(TB) leukemia
97.5 µM: RPMI-8226 leukemia

COc1ccccc1C1c2cc3c(cc2OC(O)(CO)C1C(=O)O)OCO3 (centres undefined) (tested in a mixture with another compound)
> 100 µM: NCI-H23 lung | HT29 colon | SN12C renal | LOX IMVI melanoma | SF-295 CNS | SK-MEL-2 melanoma | IGROV1 ovarian | OVCAR-8 ovarian | KM12 colon | A498 renal | SF-539 CNS | MALME-3M melanoma | HCC-2998 colon | HCT-116 colon | HCT-15 colon | SK-MEL-5 melanoma | SNB-78 CNS | OVCAR-5 ovarian | TK-10 renal | 786-0 renal | COLO 205 colon | SR leukemia | SNB-75 CNS | M14 melanoma | RPMI-8226 leukemia | U251 CNS | M19-MEL melanoma | A549 NSCLC | SK-MEL-28 melanoma | HL-60(TB) leukemia | OVCAR-4 ovarian | UACC-62 melanoma | UO-31 renal | HOP-92 NSCLC | ACHN renal | DLD-1 colon | CCRF-CEM leukemia | EKVX NSCLC | KM20L2 colon | NCI-H460 lung | UACC-257 melanoma | SW-620 colon | MOLT-4 leukemia | DMS 273 small cell lung | K-562 leukemia | LXFL 529 NSCLC | SK-OV-3 ovarian | SF-268 CNS | HOP-18 NSCLC | RXF 393 renal | DMS 114 small cell lung | HOP-62 NSCLC | OVCAR-3 ovarian | NCI-H226 lung

CCOC(=O)/C(=C\c1cccs1)P(=O)(OCC)OCC
32.4 µM: HCT-15 colon
38.1 µM: SK-MEL-2 melanoma
35.4 µM: CAKI-1 renal
29.4 µM: RXF 393 renal
35.2 µM: NCI-H23 lung
51.7 µM: DMS 114 small cell lung
30.4 µM: COLO 205 colon
43.3 µM: NCI-H226 lung
84.5 µM: HOP-92 NSCLC
31.4 µM: KM12 colon
49.7 µM: KM20L2 colon
32.8 µM: UACC-62 melanoma
60.4 µM: SF-268 CNS
36.6 µM: SW-620 colon
33.1 µM: HCC-2998 colon
45.4 µM: SF-539 CNS
41.4 µM: LXFL 529 NSCLC
46.9 µM: NCI-H460 lung
41.8 µM: OVCAR-3 ovarian
77.1 µM: RPMI-8226 leukemia
73.3 µM: HL-60(TB) leukemia
32.3 µM: ACHN renal
60.3 µM: EKVX NSCLC
45.8 µM: OVCAR-5 ovarian
41.9 µM: U251 CNS
32.7 µM: SK-MEL-28 melanoma
28.4 µM: NCI-H522 lung
33.7 µM: HCT-116 colon
> 100 µM: SF-295 CNS | RXF-631 renal | SNB-19 CNS | SNB-78 CNS | TK-10 renal | SR leukemia | SNB-75 CNS | CCRF-CEM leukemia | MOLT-4 leukemia | DMS 273 small cell lung | K-562 leukemia | SK-OV-3 ovarian | HOP-18 NSCLC | HOP-62 NSCLC
60.6 µM: DLD-1 colon
47.2 µM: 786-0 renal
33.2 µM: M14 melanoma
45 µM: M19-MEL melanoma
77.2 µM: OVCAR-8 ovarian
31.6 µM: SK-MEL-5 melanoma
45.9 µM: SN12C renal
52.6 µM: MALME-3M melanoma
36.3 µM: HT29 colon
37.5 µM: LOX IMVI melanoma | OVCAR-4 ovarian
61 µM: UACC-257 melanoma
36.1 µM: UO-31 renal
50.8 µM: A549 NSCLC

COc1ccc(C(=O)O)c2c(=O)c3cccnc3[nH]c12
> 100 µM: NCI-H23 lung | HT29 colon | SF-295 CNS | IGROV1 ovarian | OVCAR-8 ovarian | KM12 colon | A498 renal | RXF-631 renal | SNB-19 CNS | HCT-116 colon | SNB-78 CNS | OVCAR-5 ovarian | TK-10 renal | SR leukemia | M14 melanoma | U251 CNS | M19-MEL melanoma | A549 NSCLC | SK-MEL-28 melanoma | HL-60(TB) leukemia | UACC-62 melanoma | UO-31 renal | HOP-92 NSCLC | ACHN renal | CCRF-CEM leukemia | EKVX NSCLC | KM20L2 colon | NCI-H460 lung | UACC-257 melanoma | MOLT-4 leukemia | NCI-H522 lung | SK-OV-3 ovarian | RXF 393 renal | DMS 114 small cell lung | HOP-62 NSCLC
